Tests used:
[1] = tested on: T. cruzi trypomastigotes adhering to glutaraldehyde-fixed Vero cells; experiment: Inhibition of trypomastigote binding to Vero cells; type: cell-based, Trypanosoma cruzi; conditions: trypomastigotes preincubated 30 min at 37° C., binding 60 min
Experimental: In these experiments attachment of trypomastigotes to Vero cell monolayers was measured as follows. Briefly, Vero cells were maintained in RPMI 1640 supplemented with heat-inactivated 1% Nu-serum (Collaborative Research Inc., Bedford, Mass.), penicillin (100 U/ml) and streptomycin ([…]). Unless noted otherwise, cells were maintained in plastic tissue culture flasks (150 cm^2, Bellco, Vineland, N.J.) and incubated at 37° C. in a humidified atmosphere containing 5% CO2 and 95% air. Cells were propagated every 1-2 weeks after trypsin-EDTA digestion (0.5 g trypsin, 0.2 g EDTA in HBSS without Ca^++ and Mg^++) in 16-well Lab-Tek® chamber slide™ (Nunc, Inc., Naperville, Ill.. Prior to binding experiments Vero cells were removed with trypsin and plated on 96-well tissue culture plates (Bellco, Vineland, N.J.) or in 16-well Lab-Tek® chamber slide™ at a density of 7.5×10^3 cells per well. After 24 h, the medium was removed, cells were washed twice with PBS, pH 7.2, and fixed for 5 min at 4° C. by addition of 2% glutaraldehyde (grade I, Sigma Chemical Co., St. Louis, Mo.) in PBS. Cell monolayers were washed twice with PBS, pH 7.2 and incubated overnight at 4° C. in 0.16M ethanolamine, pH 8.3 to block residual free […] amino groups. The next day, cell monolayers were washed three times with PBS as above, and two times with 1% BSA/RPMI-1640 and kept at least 1 h at 37° C. in the same medium.
Trypomastigotes, [^35 S]-labeled as described above, were added to the cell monolayers in a total volume of 100 μl/well and the plates were incubated for 1 h at 37° C. Each well was then washed five times with 100 μl prewarmed PBS (pH 7.2). The [^35 S] label was solubilized with 2M NaOH and the bound radioactivity was determined in a liquid scintillation counter. Alternatively, unlabeled trypomastigotes were added to wells of a 16-well Lab-Tek® chamber slide™ and incubated as above. After removing the plastic chamber, the slide was washed by dipping 5 times in PBS (pH 7.2) and immersed upside-down in 4% paraformaldehyde in PBS, containing 7% sucrose. Finally, the slide was rinsed with PBS, stained with Diff-Quik®and the number of bound T. cruzi were determined by counting under light microscopy. For inhibition studies, trypomastigotes were preincubated 30 min at 37° C. with the appropriate proteoglycan in 100 μl of 1% BSA-RPMI- 1640 before addition to cell monolayers. Binding was determined in triplicate at each inhibitor concentration and in the absence of inhibitor.
In this assay 100% binding was taken to 5 ×10^4 trypomastigotes/well bound in 60 min.

[2] = tested on: T. cruzi trypomastigotes infecting Vero cells; experiment: Inhibition of T. cruzi infection of Vero cells; type: cell-based, Trypanosoma cruzi; conditions: for concentration causing 50% reduction of infection: FIG. 4, parasites preincubated 30 min, 2 h interaction, 3 days culture; for effect on infection: FIG. 4, even at high concentrations
Experimental: In these experiments, cultured Vero cells were released with trypsin/EDTA, plated at 7.5×10^3 cells/well in 16-well Lab-Tek® chamber slides™ for 24 h, and used for infection at ~75% confluence. Trypomastigotes were harvested, washed with serum-free RPMI containing 1% BSA, and mixed with various concentrations of proteoglycans. After 30 min at 37° C., 5×10^5 parasites in a total volume of 100 μl were added to each well containing subconfluent cultures of Vero cells and allowed to interact for 2 h at 37° C. At the end of the incubation time, cell monolayers were rinsed three times with serum-free medium, and further incubated in RPMI-1640 containing 1% Nu-serum for 3 days at 37° C. Finally, monolayers were washed, stained with Diff-Quik®, and examined under a microscope to estimate the ratio of infected (i.e., Vero cell containing more than one intracellular amastigote) to non-infected Vero cells. In order to establish if the inhibitory effect was due to interaction of heparin and heparan sulfate with trypomastigotes rather than to Vero cells, parasites or host cells were preincubated with the putative inhibitors, washed extensively, and assayed for infection as above.

[3] = tested on: T. cruzi penetrin (60 kD trypomastigote heparin-binding protein), column-purified; experiment: Binding of column-purified [125I]-labeled penetrin to heparin-Sepharose; design: species or system Trypanosoma cruzi; conditions: compound 100 μg/ml; Bovine Serum Albumin control 1.9
Experimental: To determine if [^125 I]-labeled penetrin was still active in binding extracellular matrix proteins after isolation by heparin affinity chromatography, rebinding and inhibition of rebinding to heparin-Sepharosebeads was performed. Briefly, column purified [^125 I]-labeled penetrin was incubated with or without compounds and mixed with 100 μl of heparin-Sepharose. The mixture was incubated at room temperature for 2 h under slow rocking. The slurry was then centrifuged (500× g, 5 min), washed three times with PBS, and bound radioactivity determined in a gamma counter. Referring to FIG. 7, in the absence of competitors, column-purified [^125 I]-labeled penetrin retained its ability to bind heparin-Sepharose.
For inhibition experiments, an aliquot of the purified heparin-binding protein was mixed with putative inhibitors for 1 h at room temperature, and the mixture added to 100 μl of heparin-Sepharose as above. The amount of [^125 I]-labeled protein retained by the agarose beads was assessed by elution of the protein with 1% SDS, SDS-polyacrylamide gel electrophoresis and autoradiography, and quantitated in a laser scanning densitometer (Pharmacia LKB, Ultroscan XL). One hundred percent binding was taken as the amount of protein retained by the heparin-Sepharose in the absence of added inhibitor. Referring to Table 2, adsorption of penetrin was inhibited by pre-incubation with soluble heparin, heparan sulfate or collagen, but not with other glycosaminoglycans (chondroitin sulfate and hyaluronic acid).

[4] = tested on: T. cruzi penetrin (60 kD trypomastigote heparin-binding protein), column-purified; experiment: Binding of column-purified [125I]-labeled penetrin to fibroblasts (Vero cells); design: species or system Trypanosoma cruzi
Experimental: Binding of [^125 I]-labeled penetrin to Vero cells was assayed as follows. Vero cells, grown in multiwell plates to confluence as described above, were rinsed once with 1% BSA-RPMI-1640, and incubated at 37° C. with increasing concentrations of [^125 I]-labeled penetrin. After 1 h the medium was removed, cell monolayers were washed three times with PBS, solubilized with 100 μl of 2M NaOH, and the retained radioactivity measured in a gamma counter. For inhibition experiments, an aliquot of [^125 I]-labeled penetrin was preincubated with the potential inhibitors prior to adding to confluent cells, and processed as above.

[5] = tested on: E. coli XL-1 Blue with clone HBP-6 expressing penetrin, entering Vero cells; experiment: Penetrin-mediated entry of E. coli into Vero cells (gentamicin survival); type: cell-based, Escherichia coli; conditions: 250 μg/ml; for inhibition of penetration of bacteria: E. coli preincubated with inhibitor; for survival of bacteria after gentamicin: 4.3% without inhibitor
Experimental: E. coli expressing penetrin are able to enter nonphagocytic mammalian cells which normally exclude E. coli. […] Recombinant bacteria were grown overnight at 37°, washed twice in PBS, resuspended at 10^8 cells/ml, and aliquots of 2×10^7 E coli were added to monolayers of 2×10^5 Vero cells per microliter well in 1 ml of RPMI 1640 medium containing 1% BSA. Bacteria were centrifuged onto the cell monolayer, and the cultures were incubated at 37° for 3 h in a 5% CO2 /95% air atmosphere, washed three times with sterile PBS, and incubated for an additional 1.5 h at 37° C. in RPMI 1640 medium containing 1% BSA and 75 μg/ml gentamicin (to kill bacteria bound to outer membrane). The monolayers were then washed three times in sterile PBS, and lysed with 0.5% Triton X-100 in deionized water to release internalized bacteria, which were quantitated in agar plates.

[6] = tested on: T. cruzi trypomastigotes; experiment: Trypomastigote binding to heparin- or collagen-coated wells; type: cell-based, Trypanosoma cruzi; conditions: soluble compound
Experimental: Proteoglycans (dissolved in PBS) and collagen solubilized in 0.1N HCl and neutralized in PBS) were adsorbed onto plastic (Falcon 3912 polyvinylchloride 96-well microliter plates) by incubation overnight at 4° C. (Roberts et al., J. BioI. Chem. 264:9289, 1989). The unbound proteins were removed, the wells filled with 1% heat-treated BSA in PBS (56° C., 60 min and filtered in […] nitrocellulose filters to remove insoluble particles) and incubated for 1 h at room temperature. The wells were then washed twice with PBS (pH 7.2) and rinsed with RPMI 1640 containing 1% BSA. T. cruzi trypomastigotes, labeled with [^35 S] methionine, were resuspended in RPMI-BSA and 100 μl of the suspension was applied to the wells. After various periods of incubation at 37° C., the wells were carefully washed three times with 37° C. PBS (pH 7.2). T. cruzi bound to the plastic-bound proteoglycans were then solubilized with 100 μ l of 2 M NaOH, mixed with Ultrafluor (National Diagnostics, Manville, N.J.), and assayed by liquid scintillation counting. Referring to FIG. 1a, adherence of trypomastigotes to heparin-coated plates increased linearly with the length of incubation up to about 60 min. In a separate experiment trypomastigotes were added for 60 min, but the number added was varied. […] In contrast, non-specific binding to BSA-coated wells was less than 2%.

Substance	% Vero Cells with Trypomastigotes ([1]; inhibitor 125 μg/ml) [%]	% Vero Cells with Trypomastigotes ([1]; inhibitor 250 μg/ml) [%]	concentration causing 50% reduction of infection [2] [µg/mL]	Penetrin Bound [3] [cpm × 10^-3]	inhibition of binding of [125I]-labeled penetrin to Vero cell monolayers (in words) [4]	% Inhibition of penetrin binding to fibroblasts ([4]; compound 5 μg/ml) [%]	% Inhibition of penetrin binding to fibroblasts ([4]; compound 25 μg/ml) [%]	% Inhibition of penetrin binding to fibroblasts ([4]; compound 50 μg/ml) [%]	% Inhibition of penetrin binding to fibroblasts ([4]; compound 100 μg/ml) [%]	% Inhibition of penetrin binding to fibroblasts ([4]; compound 250 μg/ml) [%]	inhibition of penetration of bacteria [5] [%]	survival of bacteria after gentamicin [5] [%]	inhibition of trypomastigote binding to coated wells (in words) [6]	effect on infection [2]	effect on E. coli entry (in words) [5]
Heparin	50	12.5	100	0.7	inhiited	25	55	75	89	91	85	0.6	inhibited	–	–
Chondroitin Sulfate	–	96	–	1.6	–	–	–	–	–	12	–	–	–	little effect on infection	without effect
Hyaluronic Acid	–	98	–	1.8	–	–	–	–	–	–	–	–	–	little effect on infection	without effect
Heparan Sulfate	60	18	1.5	0.75	inhiited	–	–	–	–	65	85	0.6	inhibited	–	–

— patent US5234822A, “Trypanosoma cruzi heparin-binding protein and antibodies thereto” (priority 1991, dated 1993)
